# According to the METLIN SMRT retention time set (Domingo-Almenara et al. 2019):
# Test: gradient 5% acetonitrile 3 min, to 50% in 2 min, to 85% in 15 min, held 3 min, 100 µL/min
# Details: column: Zorbax Extend-C18 2.1 x 50 mm; eluents: water / acetonitrile, 0.1% formic acid
# Procedure, shortened: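 Each retention time is based on an adduct peak selected computationally and verified by manual inspection. Measurements used HPLC–quadrupole time-of-flight mass spectrometry in positive and negative ionization mode on mixtures of ~100 pure standards. Chromatography ran on a Zorbax Extend-C18 column (2.1 × 50 mm, 1.8 μm) at 100 μL/min with water and acetonitrile, each containing 0.1% formic acid, and dead and dwell volumes of 40 μL and 900 μL.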
row,SMILES,RP-LC retention time
1,CCCn1ncc(N2CCC(C(=O)N3CCC(C)CC3)CC2)cc1=O,734 s
2,Fc1cccc(-n2cc(-c3noc(-c4ccccc4)n3)nn2)c1,1070 s
3,O=C(CCc1nnc2c3cc(-c4ccc(F)cc4)nn3ccn12)NCCc1cccs1,786 s
4,O=C(CN1C(=O)CCCc2cc(S(=O)(=O)N3CCCCCC3)ccc21)Nc1ccc(F)cc1F,962 s
5,CC(C)n1c(=O)sc2cc(S(=O)(=O)N3CCC(C(=O)N4CCCC4)CC3)ccc21,809 s
6,Cc1cccc(C(=O)N2CCN(c3c(C)n(C)c(=O)n(C)c3=O)CC2)c1,726 s
7,CC(=O)Nc1ccc(OCC(O)CN2CCC(Cc3ccccc3)CC2)cc1 (stereo not drawn),577 s
8,COc1ccc(Cc2nc(-c3ccc4nnc(C)n4c3)no2)cc1Cl,822 s
9,O=C([C@@H]1C[C@H](Oc2ccccc2)CN1C(=O)CC1CCCC1)N1CCCC1,832 s
10,Cc1nn(CC(=O)NCCC(C)C)c(=O)c2c(-n3cccc3)n(-c3ccc(Cl)cc3)nc12,1030 s
11,Cc1cc(N2CCN(C)CC2)nc2ccc(NC(=S)NCc3ccc4c(c3)OCO4)cc12,586 s
12,O=C(NCc1ccc(F)cc1F)C1CCCN(c2nc3ccsc3c(=O)n2-c2ccc(F)cc2)C1 (stereo not drawn),885 s
13,O=C(c1cnn(-c2ccccc2)n1)N1CCN(C(=O)C2CC2c2ccc(F)cc2)CC1 (stereo not drawn),898 s
14,COc1ccc(-c2noc(Cn3ccn(-c4cc(C)cc(C)c4)c(=O)c3=O)n2)cc1OC,834 s
15,Cc1noc(C)c1C1CCCN1C(=O)CCc1ccccc1 (stereo not drawn),775 s
16,CC1CCc2cc(F)cc3c(=O)c(C(=O)O)cn1c23 (stereo not drawn),806 s
17,O=C(Cn1ccnc1-c1ccnc(N2CCOCC2)c1)N1CCN(c2ccccc2)CC1,639 s
18,Cc1cccc(-c2cc(C(N)=O)c3ccccc3n2)c1,816 s
19,CCc1ccccc1NC(=O)C1CCN(c2nnc3ccccn23)CC1,660 s
20,O=C(Nc1cccc(Br)c1)C(=O)c1c[nH]c2ccccc12,1060 s
21,CCOc1ccccc1NC(=O)N1CCN(c2ccc(=O)n(-c3ccc(F)cc3)n2)CC1,875 s
22,O=C(NCc1cccs1)C1CCCN(c2nnc3ccc(C(F)(F)F)cn23)C1 (stereo not drawn),668 s

row,SMILES,RP-LC retention time
1,C#CCN[C@@H]1CCc2ccccc21,613 s
2,CSc1ccc(CNC(=O)CC2CCN(C(=O)c3[nH]c(C)cc3C)CC2)cc1,792 s
3,CC(=O)Nc1ccc(NC(=O)c2cccc(N3C(=O)NC4CC3(C)Oc3ccccc34)c2)cc1 (stereo not drawn),702 s
4,COc1ccc(OCc2nn3c(-c4ccc(OC)cc4)nnc3s2)cc1,947 s
5,COCCC1CCN(C(=O)c2nccc3ccccc23)CC1,719 s
6,Cc1noc([C@@H]2CN(C(=O)c3cc(C4CC4)[nH]n3)C[C@H]2C(N)=O)n1,596 s
7,CCOC(=O)c1c(C)[nH]c(C(=O)N2CCC(CC(=O)NC3CC3)CC2)c1C,654 s
8,CCOC(=O)c1c(S(=O)(=O)N2CCC(C(=O)Nc3cccc(C)n3)CC2)c(C)n(C)c1C,701 s
9,Cc1ccccc1-n1c(=O)c2sccc2n(Cc2nc(-c3cccc(C(F)(F)F)c3)no2)c1=O,1100 s
10,COC(=O)c1cc(OCC(=O)Nc2ccccc2F)c2cc(OC)c(OC)cc2n1,756 s
11,CC1CCCCN1CCCNC(=O)C1=Cc2cc(Br)ccc2OC1 (stereo not drawn),696 s
12,CN(C)c1ccc(CCNC(=O)c2cccc(C(F)(F)F)c2)cc1,621 s
13,COc1ccc(-c2noc(C3CCCN3C(=O)COc3ccccc3)n2)cc1 (stereo not drawn),936 s
14,O=C(NCC1CCCO1)c1ccc2c(c1)NC(=O)C1CCC(=O)N21 (stereo not drawn),598 s
15,Cc1c(CNCCc2ccco2)c(C(=O)O)c(C)n1Cc1ccc(F)cc1,709 s
16,Cc1cccc(-c2nc(C3CCN(S(=O)(=O)c4cc(C)ccc4C)CC3)no2)c1,1320 s
17,COc1ccc2c(c1)C1(CCN(C(=O)Nc3ccc(C)cc3)C1)C(=O)N2 (stereo not drawn),745 s
18,CCOC(=O)C1CCN(C(=O)c2ccc(-c3nc4ccccc4n(CC(C)C)c3=O)cc2)CC1,1060 s
19,CCOC(=O)c1[nH]c(C)c(C(=O)N2CCC(CC(=O)NC(C)C)CC2)c1C,643 s
20,O=C(CCc1conc1-c1cccc(F)c1)NCc1ccc(F)cc1,899 s
21,FC(F)(F)c1cccc(-c2ccc(CNC3CC3)o2)c1,695 s
22,Cc1noc([C@@H]2CC(F)(F)CN2C(=O)CCc2c(C)noc2C)n1,718 s

row,SMILES,RP-LC retention time
1,Cc1nc(-c2ccc(N3CCN(C(=O)c4ccc5c(c4)OCO5)CC3)nc2)sc1C,813 s
2,Cn1nc(C2CCN(S(=O)(=O)c3cccc(Cl)c3)CC2)n(C2CCCC2)c1=O,925 s
3,CCc1nc2c(NC(=O)c3ccc(Cl)s3)cccn2n1,941 s
4,C=CCN1C(=O)COc2ccc(-c3nc(NC(=O)Cc4ccccc4)sc3C)cc21,1000 s
5,Clc1ccc(-c2nc(-c3cccc(-c4ccn[nH]4)c3)no2)cc1,1090 s
6,COc1ccc(N2CC(c3noc(-c4ccc(OC)c(F)c4)n3)CC2=O)cc1 (stereo not drawn),856 s
7,CCOC(=O)c1noc2ncnc(N(Cc3ccccc3OC)C3CCN(C)CC3)c12,667 s
8,CCN1C(=O)C(CC(=O)NCc2ccncc2)Sc2ncccc21 (stereo not drawn),558 s
9,Cc1cccc(Oc2nccnc2N2CCC(C(=O)NC3CCCCCC3)CC2)c1,1110 s
10,CCNc1cc(-n2cccn2)ncn1,666 s
11,Cc1ccc(CNC(=O)Cn2cnc3nc(N4CCCC(C(=O)NC5CC5)C4)sc3c2=O)cc1 (stereo not drawn),743 s
12,O=C(Nc1ccc2c(c1)CCCN2C(=O)c1ccco1)c1ccccc1C(F)(F)F,792 s
13,Cc1ccccc1C(=O)N1CCC2(CC1)NCc1ccccc1-n1ccnc12,609 s
14,Cc1ccc(-c2noc(-c3cccc(S(=O)(=O)NCCCN4CCC(C)CC4)c3)n2)cc1,826 s
15,CCOc1ccc(CNC(=O)c2c(C)sc3ccn(C)c(=O)c23)cc1,786 s
16,Cc1[nH]c(-c2ccc(Cl)cc2)cc1C(=O)NC1CCCC1,947 s
17,COc1cccc(N2CCN(c3nc(C(=O)NCCN4CCOCC4)cs3)CC2)c1,667 s
18,O=C(c1ccsc1)N1CC(c2noc(C3CCCN3CC3CC3)n2)C1 (stereo not drawn),590 s
19,COC(=O)c1cccc(Nc2c(-c3ccc(Cl)cc3)nc3cnccn23)c1,905 s
20,O=S(=O)(c1ccccc1)N1CCC(Cc2nncn2-c2ccccc2)C1 (stereo not drawn),709 s
21,Cc1ccc(C(=O)COc2cc(O)c3c(=O)cc(-c4ccccc4)oc3c2)cc1,1210 s
22,Cn1cc(C(F)(F)F)nc1-c1ccc(OCC(O)CNCCOc2ccc(O)c(C(N)=O)c2)cc1 (stereo not drawn),710 s

row,SMILES,RP-LC retention time
1,O=C(COc1ccccc1)N1CCN(C(=O)c2nnn3c2COC(c2ccc(Cl)cc2)C3)CC1 (stereo not drawn),922 s
2,Cc1ccc(N2CCN(C(=O)c3cn(-c4ccc(NC(=O)C5CC5)cn4)cn3)CC2)c(C)c1,913 s
3,CCOc1ccc(NS(=O)(=O)c2cc(-c3[nH]ncc3C(=O)N(C)C)oc2C)cc1,686 s
4,CNC(=O)c1ccc(-c2nc3cc(NS(=O)(=O)c4ccc(F)cc4F)ccc3n2C)cc1,645 s
5,CCOCCCNC(=O)C1CCCN(c2ncc(-c3cccc(F)c3)cn2)C1 (stereo not drawn),902 s
6,Cc1c(C(=O)Nc2ccc(N3CCC(N4CCOCC4)CC3)c(C#N)c2)cnn1-c1ccc(Cl)cc1,800 s
7,Cc1ccc(CNC(=O)C2(C)CCN(S(=O)(=O)c3ccc(Br)cc3)CC2)cc1,1030 s
8,CC(C)n1c(=O)c2ccccc2n(Cc2nc(-c3ccc(F)cc3)no2)c1=O,1110 s
9,O=C(Nc1cccnc1)C1CCN(S(=O)(=O)c2cccnc2)CC1,591 s
10,O=C(NCc1ccccc1F)c1cn(-c2ccc(-c3nc(C4CC4)no3)cn2)cn1,929 s
11,O=c1c2scc(-c3ccc(F)cc3)c2ncn1Cc1ccc(Br)cc1,1180 s
12,CC(C)(C)NC(=O)C(=O)NCC1CCN(C(=O)COc2ccccc2)CC1,747 s
13,O=C(NCCC1=CCCCC1)C1CCN(S(=O)(=O)c2ccc(-c3noc(C4CC4)n3)cc2)CC1,1090 s
14,COC(=O)c1cc(S(=O)(=O)N2CCN(c3ccccn3)CC2)c(C)n1C,630 s
15,Cc1ccccc1NC(=O)c1cccn1Cc1noc(C2CC2)n1,880 s
16,COc1cc2c(cc1OC)C1C(C(=O)NCCCN3CCC(C)CC3)c3ccccc3C(=O)N1CC2 (stereo not drawn),629 s
17,Cc1ccc(-c2ccc(-n3nc(C)c(S(=O)(=O)N4CCC(C)CC4)c3C)nn2)cc1,1260 s
18,COc1ccc(CC(C)(O)CNC(=O)c2cc(Br)ccc2Cl)cc1 (stereo not drawn),822 s
19,O=C(NCCn1nnc2cc(C(=O)N3CCCC3)ccc21)Nc1ccc(F)cc1,662 s
20,CC1Cc2ccccc2N1C(=O)c1coc(NC(=O)c2ccco2)n1 (stereo not drawn),724 s
21,CCS(=O)(=O)N1CC(=O)N(c2cc(C)ccc2C)C(C)(C(=O)NC2CCCCCC2)C1 (stereo not drawn),951 s
22,Cc1cc(F)cc2c(=O)c3c([nH]c12)CCN(CC(=O)Nc1ccc(F)c(Cl)c1)C3,664 s
